# Like-named read-outs stand apart in the source and are kept apart here.
# Experiments:
# human α2A = molecular target: T1, human α2A (Homo sapiens, UniProt P08913); experiment: Receptor binding, [3H]rauwolscine, CHO-C10 cells expressing human α2A; details: CHO-C10, 22° C., 30 min
# T1 construct: expressed in transfected cells; host or cells: CHO cells (CHO-C10)
# T1 sequence (P08913 1-465): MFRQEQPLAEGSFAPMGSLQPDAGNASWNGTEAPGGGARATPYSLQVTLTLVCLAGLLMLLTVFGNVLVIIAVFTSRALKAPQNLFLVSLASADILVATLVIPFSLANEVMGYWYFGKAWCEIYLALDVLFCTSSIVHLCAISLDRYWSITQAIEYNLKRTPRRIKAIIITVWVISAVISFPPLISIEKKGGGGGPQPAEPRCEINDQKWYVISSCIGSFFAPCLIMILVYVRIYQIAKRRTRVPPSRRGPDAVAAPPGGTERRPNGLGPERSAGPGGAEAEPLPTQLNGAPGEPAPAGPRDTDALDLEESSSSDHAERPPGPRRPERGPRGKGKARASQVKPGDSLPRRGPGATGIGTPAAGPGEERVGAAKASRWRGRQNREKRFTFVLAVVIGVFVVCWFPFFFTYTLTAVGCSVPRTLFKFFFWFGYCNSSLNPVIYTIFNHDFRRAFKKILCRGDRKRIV
# Method: (§1) Cell preparation: Chinese hamster ovary (CHO) cells expressing the human α2A and human α2C (CHO-C10 and CHO-C4 respectively) receptors and CHO cells (CHO-RNG) expressing the rat α2B, adrenoceptor were grown to near confluence in Dulbecco's modified Eagle's medium supplemented with 10% fetal bovine serum using standard cell culture methods. Cells were harvested by scraping and placed into cold buffer of the following composition: 50 mM Tris-HCl, 5 mM EDTA, pH 7.4). […] The pellet fraction was washed (resuspended in Tris-HCl, pH 8 buffer and centrifuged for 15-20 minutes at 49,000× g) 2 times and stored at -100° until binding assay.
# (§2) Binding Studies: The radioligands [^3 H]rauwolscine (specific activity 80 Ci/mmol) and [^3 H]prazosin (specific activity 76 Ci/mmol) were obtained from New England Nuclear, Boston, Mass. Frozen membrane pellet was resuspended in 25 mM glycine/glycine, pH 7.5 and incubated with radioligand under the following conditions: CHO-C10, CHO-RNG, CHO-C4-[^3 H]rauwolscine, 22° C., 30 minutes; RKC-[^3 H]rauwolscine, 0° C., 120 minutes; and, HCC-[^3 H]prazosin, 22° C., 30 minutes in a final volume of 500 ul. At the end of the incubation period, the samples were filtered through glass filters (Whatman GF/B) in a 96 well cell harvester and rapidly washed four times with 4 mL of iced-cold 50 mM Tris-HCl buffer. The filters were then oven dried and transferred to scintillation vials containing 10 mL of Beckman's Ready Protein® scintillation cocktail for counting. […] Protein concentrations were determined with a protein assay kit from Bio Rad. Binding isotherms, equilibrium dissociation and affinity constants were analyzed and determined by the non-linear least squares curve fitting programs EBDA (BioSoft) or AccuFit Competition/Saturation by Beckman.
# (§3) Cell Preparation: Chinese hamster ovary (CHO) cells expressing the human α2A (CHO-C10) and the rate α2B (CHO-RNG) […] were grown to near confluence in Dulbecco's modified Eagle's medium supplemented with 10% fetal bovine serum using standard cell culture methods. Cells were harvested by scraping and placed into cold buffer of the following composition: 50 mM Tris-HCl, 5 mM EDTA, pH 7.4). […] The pellet fraction was washed (resuspended in Tris-HCl, pH 8 buffer and centrifuged for 15-20 minutes at 49,000× g) 2 times and stored at […] until binding assay.
# (§4) The radioligands [^3 H] rauwolscine (specific activity 80 Ci/mmol) and [^3 H] prazosin (specific activity 76 Ci/mmol) were obtained from New England Nuclear, Boston, Mass. Frozen membrane pellet was resuspended in 25 mM glycine/glycine, pH 7.4 and incubated with radioligand under the following conditions: CHO-C10, CHO-RNG, CHO-C4-[^3 H]rauwolscine, 22° C., 30 min.; and, HCC-[^3 H]prazowsin, 22° C., 30 minutes in a final volume of 500 ul. At the end of the incubation period, the samples were filtered through glass fiber filters (Whatman GF/B) in a 96 well cell harvester and rapidly washed four times which 4 mL of iced-cold 50 mM Tris-CHI buffer. The filters were then oven dried and transferred to scintillation vials containing 5 mL of Beckman's Ready Protein® scintillation cocktail for counting. […] Protein concentrations were determined with a protein assay kit from Bio lad. Binding isotherms, equilibrium dissociation and affinity constants were analyzed and determined by the non-linear least squares curve fitting programs AccuFit Competition/Saturation by Beckman.
# (§5) Representative compounds of the present invention were tested according to the procedures given above. […] The receptor binding studies and K1 are measures of the affinity of a compound for a particular receptor.
# rat α2B = molecular target: T2, rat α2B (Rattus norvegicus, UniProt P19328); experiment: Receptor binding, [3H]rauwolscine, CHO-RNG cells expressing rat α2B
# T2 construct: expressed in transfected cells; host or cells: CHO cells (CHO-RNG)
# T2 sequence (P19328 1-453): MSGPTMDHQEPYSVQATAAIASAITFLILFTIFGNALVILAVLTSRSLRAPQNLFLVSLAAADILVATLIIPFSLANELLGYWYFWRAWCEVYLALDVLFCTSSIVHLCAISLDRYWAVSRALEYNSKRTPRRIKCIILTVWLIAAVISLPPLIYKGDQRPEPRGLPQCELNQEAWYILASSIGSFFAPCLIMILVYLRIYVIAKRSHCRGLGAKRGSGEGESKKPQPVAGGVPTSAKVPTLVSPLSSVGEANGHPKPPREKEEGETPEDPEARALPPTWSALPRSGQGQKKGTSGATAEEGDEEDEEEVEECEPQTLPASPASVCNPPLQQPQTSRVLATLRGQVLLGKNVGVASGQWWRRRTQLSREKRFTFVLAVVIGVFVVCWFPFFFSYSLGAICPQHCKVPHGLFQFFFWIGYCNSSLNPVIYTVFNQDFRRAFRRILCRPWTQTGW
# Method: as §1, §2, §3, §4, §5
# human α2C = molecular target: T3, human α2C (Homo sapiens, UniProt P18825); experiment: Receptor binding, [3H]rauwolscine, CHO-C4 cells expressing human α2C; details: CHO-C4, 22° C., 30 min
# T3 construct: expressed in transfected cells; host or cells: CHO cells (CHO-C4)
# T3 sequence (P18825 1-462): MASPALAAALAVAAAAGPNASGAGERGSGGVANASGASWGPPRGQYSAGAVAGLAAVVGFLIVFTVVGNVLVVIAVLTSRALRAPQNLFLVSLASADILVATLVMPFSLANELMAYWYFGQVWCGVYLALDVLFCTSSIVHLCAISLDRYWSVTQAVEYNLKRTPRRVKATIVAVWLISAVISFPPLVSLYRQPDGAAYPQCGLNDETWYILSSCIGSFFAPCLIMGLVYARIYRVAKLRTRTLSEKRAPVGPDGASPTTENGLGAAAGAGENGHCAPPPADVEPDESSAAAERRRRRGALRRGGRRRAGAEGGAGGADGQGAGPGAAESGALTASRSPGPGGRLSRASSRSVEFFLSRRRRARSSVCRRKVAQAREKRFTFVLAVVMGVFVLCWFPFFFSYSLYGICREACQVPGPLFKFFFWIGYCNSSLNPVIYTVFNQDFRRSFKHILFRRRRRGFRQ
# Method: as §1, §2, §4, §5
# [1] = [3H]rauwolscine, CHO-RNG, 22° C., 30 min, read-out: Ki α2B
Structure (SMILES),Ki (human α2A),Ki (rat α2B),Ki (human α2C),Ki (rat α2B; [1])
Cc1ccccc1NC1=NCCN1 [Example 1],8.9 nM,49 nM,70 nM,–
Nc1cc(Cl)c(NC2=NCCN2)c(Cl)c1 [Example 3],2.9 nM,–,21 nM,4.8 nM
c1cc2c(cc1NC1=NCCN1)NCCN2 [Example 7],35 nM,–,463 nM,262 nM
Cc1c(NC2=NCCN2)ccc2c1NCCN2 [Example 8],9.6 nM,–,124 nM,139 nM
Brc1c(NC2=NCCN2)ccc2c1NCCN2 [Example 9],6.1 nM,–,120 nM,47 nM
CC1CNc2c(ccc(NC3=NCCN3)c2Br)N1 (stereo not drawn) [Example 10],24 nM,–,293 nM,194 nM
c1cc2c(cc1NC1=NCCN1)OCCO2 [Example 11],–,28 nM,–,–
COc1ccc(NC2=NCCN2)c(C)c1OC [Example 12],5.2 nM,–,93 nM,196 nM
Cc1c(NC2=NCCN2)ccc2c1OCCO2 [Example 13],0.25 nM,4 nM,3.5 nM,–
O=C1COc2ccc(NC3=NCCN3)cc2N1 [Example 14],52 nM,–,–,842 nM
Cc1c(NC2=NCCN2)ccc2c1NC(=O)CO2 [Example 15],17 nM,–,134 nM,241 nM
Cc1c(NC2=NCCN2)ccc2c1NCCO2 [Example 16],1.2 nM,–,8.9 nM,30 nM
Cc1cccc(Nc2ncc[nH]2)c1C [Example 18],52 nM,–,180 nM,295 nM
Cc1c(O)cccc1Nc1ncc[nH]1 [Example 20],30 nM,–,457 nM,895 nM
COc1c(C(C)(C)C)cc(C)c(Nc2ncc[nH]2)c1C [Example 22],4.9 nM,–,88 nM,221 nM

# Reference: patent US6087361A, “Aryl-imidazolines and aryl-imidazoles useful as α-2 adrenergic agonists without cardiovascular side effects” (Allergan Sales, Inc., priority 1997, dated 2000)
